Consider 19 compounds from ChEMBL document CHEMBL4765420, “Design, synthesis and biological evaluation of novel HDAC inhibitors with improved pharmacokinetic profile in breast cancer” (Eur J Med Chem, 2020).

Assay [1] deals with T1, Protein deacetylase HDAC6 (Homo sapiens, UniProt Q9UBN7).
T1 sequence (Q9UBN7 whole entry): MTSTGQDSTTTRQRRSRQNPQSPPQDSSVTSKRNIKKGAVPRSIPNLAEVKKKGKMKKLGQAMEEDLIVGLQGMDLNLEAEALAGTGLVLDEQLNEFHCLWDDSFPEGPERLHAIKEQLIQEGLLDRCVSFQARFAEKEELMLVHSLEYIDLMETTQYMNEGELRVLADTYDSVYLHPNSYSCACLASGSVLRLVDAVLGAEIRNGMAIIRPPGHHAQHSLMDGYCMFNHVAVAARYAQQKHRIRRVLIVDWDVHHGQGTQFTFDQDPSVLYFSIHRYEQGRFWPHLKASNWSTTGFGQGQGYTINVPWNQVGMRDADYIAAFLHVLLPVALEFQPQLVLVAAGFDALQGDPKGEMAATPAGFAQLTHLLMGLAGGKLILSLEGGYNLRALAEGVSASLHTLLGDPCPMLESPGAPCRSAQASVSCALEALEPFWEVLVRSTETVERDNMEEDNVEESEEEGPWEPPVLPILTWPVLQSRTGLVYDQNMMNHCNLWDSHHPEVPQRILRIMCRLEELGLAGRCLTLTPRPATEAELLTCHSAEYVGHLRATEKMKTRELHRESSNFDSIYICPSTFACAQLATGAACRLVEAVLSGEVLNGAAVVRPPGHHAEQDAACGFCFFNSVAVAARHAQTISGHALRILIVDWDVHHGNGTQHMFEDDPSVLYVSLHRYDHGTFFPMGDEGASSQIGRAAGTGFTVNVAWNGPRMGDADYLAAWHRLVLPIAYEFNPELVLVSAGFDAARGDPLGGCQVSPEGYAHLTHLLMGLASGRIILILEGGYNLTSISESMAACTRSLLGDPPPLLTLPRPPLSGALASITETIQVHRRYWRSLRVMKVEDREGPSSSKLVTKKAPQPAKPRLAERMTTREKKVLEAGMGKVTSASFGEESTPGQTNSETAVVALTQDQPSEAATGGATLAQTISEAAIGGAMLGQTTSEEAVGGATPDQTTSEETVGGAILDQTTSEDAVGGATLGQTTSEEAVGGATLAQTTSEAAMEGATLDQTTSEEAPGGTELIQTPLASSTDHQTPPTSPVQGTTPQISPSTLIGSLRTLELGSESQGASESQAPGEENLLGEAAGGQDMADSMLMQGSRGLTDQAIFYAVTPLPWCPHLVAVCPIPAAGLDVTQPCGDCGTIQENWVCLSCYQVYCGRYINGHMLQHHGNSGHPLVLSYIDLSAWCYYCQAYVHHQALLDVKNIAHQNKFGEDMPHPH
Description: Inhibition of recombinant human His-tagged HDAC6 expressed in baculovirus infected insect cells using Ac-Leu-Gly-Lys(Ac)-AMC as substrate measured after 30 mins by fluorescence assay.

For the next assay, the system named is MDA-MB-231. Description: Antiproliferative activity against human MDA-MB-231 cells measured after 24 hrs by MTT assay. It is filed as functional, cell-based. The following applies: MDA-MB-231, 24 h.

Usually IC50 stands for the concentration that inhibits the measured activity by half. Consider `COc1cc(OC)c2c(N3CCOCC3)nc(-c3cc(C)c(OCCCCCC(=O)NO)c(C)c3)nc2c1`, for which the values for the half-maximal inhibitory concentration (IC50) (in assay [1]; in the assay with MDA-MB-231) were 0.119 µM and 5.54 µM, respectively.

`COc1cc(OC)c2c(N3CCOCC3)nc(-c3cc(C)c(OCCCCC(=O)NO)c(C)c3)nc2c1`: the IC50 in assay [1] is 0.21 µM; in the assay on MDA-MB-231 it was 7.21 µM.

Take `COc1cc(OC)c2c(N3CCOC[C@H]3C)nc(-c3cc(C)c(OCCCCCC(=O)NO)c(C)c3)nc2c1`: the IC50 in assay [1] came out at 0.102 µM; with MDA-MB-231 it was 5.97 µM.

For `COc1cc(OC)c2c(N3CCSCC3)nc(-c3cc(C)c(OCCCCCC(=O)NO)c(C)c3)nc2c1`, the IC50 came to 0.129 µM in assay [1] and 8.89 µM with MDA-MB-231.

Take `COc1cc(OC)c2c(N3CCOC[C@H]3C)nc(-c3cc(C)c(OCCCCC(=O)NO)c(C)c3)nc2c1`: the results for the IC50 (in assay [1]; in the assay with MDA-MB-231) were 0.22 µM and 8.35 µM, respectively.

Consider `COc1cc(OC)c2c(N3CCOC[C@H]3C)nc(-c3cc(C)c(OCC(=O)NO)c(C)c3)nc2c1`, for which the IC50 in assay [1] was above 20 µM; with MDA-MB-231 it was 31.3 µM.

Turning to `COc1cc(OC)c2c(N3CCOCC3)nc(-c3cc(C)c(OCCCC(=O)NO)c(C)c3)nc2c1`, the half-maximal inhibitory concentration (IC50) in assay [1] was 0.35 µM; in the assay with MDA-MB-231 it was 11.4 µM.

Turning to `COc1cc(OC)c2c(N3CCOCC3)nc(-c3cc(C)c(OCC(=O)NO)c(C)c3)nc2c1`, the IC50 is above 20 µM in assay [1] and 35.9 µM in the assay on MDA-MB-231.

Take `COc1cc(OC)c2c(N3CCSCC3)nc(-c3cc(C)c(OCCCCC(=O)NO)c(C)c3)nc2c1`: the IC50 in assay [1] was 0.29 µM; with MDA-MB-231, 9.83 µM.

`COc1cc(OC)c2c(N3CCSCC3)nc(-c3cc(C)c(OCCCC(=O)NO)c(C)c3)nc2c1`: the results for the IC50 (in assay [1]; in the assay with MDA-MB-231) were 0.42 µM and 15.7 µM, respectively.

For the compound `COc1cc(OC)c2c(N3CCS(=O)(=O)CC3)nc(-c3cc(C)c(OCCCC(=O)NO)c(C)c3)nc2c1`, the 50% inhibitory concentration (IC50) came to 0.85 µM in assay [1] and 18.4 µM in the assay on MDA-MB-231.

For the compound `COc1cc(OC)c2c(N3CCOC[C@H]3C)nc(-c3cc(C)c(OCCCC(=O)NO)c(C)c3)nc2c1`, the results for the IC50 (in assay [1]; in the assay on MDA-MB-231) were 0.33 µM and 11.3 µM, respectively.

For the compound `COc1cc(OC)c2c(N3CCS(=O)(=O)CC3)nc(-c3cc(C)c(OCC(=O)NO)c(C)c3)nc2c1`, the IC50 was above 20 µM in assay [1] and above 50 µM in the assay on MDA-MB-231.

On to `COc1cc(OC)c2c(N3CCS(=O)(=O)CC3)nc(-c3cc(C)c(OCCCCC(=O)NO)c(C)c3)nc2c1`, for which the IC50 was found to be 0.13 µM in assay [1] and 12.1 µM with MDA-MB-231.

In the case of `COc1cc(OC)c2c(N3CCSCC3)nc(-c3cc(C)c(OCC(=O)NO)c(C)c3)nc2c1`, the IC50 is above 20 µM in assay [1] and 37.2 µM in the assay with MDA-MB-231.

In the case of `COc1cc(OC)c2c(N3CCOC[C@@H]3C)nc(-c3cc(C)c(OCCCCC(=O)NO)c(C)c3)nc2c1`, the half-inhibitory concentration (IC50) stood at 0.19 µM in assay [1] and 6.6 µM in the assay with MDA-MB-231.

With `COc1cc(OC)c2c(N3CCOC[C@@H]3C)nc(-c3cc(C)c(OCC(=O)NO)c(C)c3)nc2c1`, the IC50 in assay [1] was above 20 µM; with MDA-MB-231, 29.4 µM.

As for `COc1cc(OC)c2c(N3CCOC[C@@H]3C)nc(-c3cc(C)c(OCCCCCC(=O)NO)c(C)c3)nc2c1`, the IC50 in assay [1] came to 0.0985 µM; in the assay on MDA-MB-231, 3.79 µM.

Turning to `COc1cc(OC)c2c(N3CCOC[C@@H]3C)nc(-c3cc(C)c(OCCCC(=O)NO)c(C)c3)nc2c1`, the IC50 in assay [1] turned out to be 0.36 µM; in the assay on MDA-MB-231, 10.8 µM.
